From patent publication US9174939B2, “Soft rock inhibitors” (Amakem NV, priority 2011, dated 2015)

Legend:
[1] = system: MLC-T18/S19 phosphorylation by endogenous ROCK in A7r5 cells; assay: Myosin Light Chain Phosphorylation assay (ELISA, A7r5 cells); format: cell-based; conditions: A7r5 rat smooth muscle cells, serum-free medium, phospho-MLC-T18/S19 ELISA
Protocol: C.1.4. Myosin Light Chain Phosphorylation assay
Rat smooth muscle cell line A7r5 is used. The endogenous expression of ROCK results in a constitutive phosphorylation of the regulatory myosin light chain at T18/S19. A7r5 cells were plated in DMEM supplemented with 10% FCS in multiwall cell culture plates. After serum starvation overnight, cells were incubated with compounds in serum-free medium.
Quantification of MLC-T18/S19 phosphorylation is assessed in 96 well-plates via ELISA using a phspho-MLC-T18/S19 specific antibody and a secondary detection antibody. Raw data were converted into percent substrate phosphorylation relative to high controls, which were set to 100%. IC50 values were determined using GraphPad Prism 5.01 software using a nonlinear regression curve fit with variable hill slope.

[2] = Stability towards drug metabolizing enzymes in lung S9; format: in vitro ADME; conditions: human, lung S9 (from smokers) with NADPH, UDPGA, PAPS and GSH, read-out: t½ human lung S9
Protocol: C.2.2. Stability Towards Drug Metabolizing Enzymes in Lung S9
A 1 μM solution of the ROCK inhibitors is incubated with a reaction mixture containing lung S9 (from smokers) as well as the cofactors NADPH, UDPGA, PAPS and GSH. Samples are collected at 0, 15, 30 and 60 minutes post incubation. Negative control samples incubated with ROCK inhibitors and S9 fraction in the absence of cofactors are run in parallel. By using LC-MS/MS analysis, the percent of ROCK compounds remaining at each time point, the metabolic half-life of the ROCK compounds (expressed in minutes) and the metabolic half-life of the control compounds are determined.

[3] = Stability assay in rabbit aqueous humor; format: in vitro ADME; conditions: 1 μM in rabbit aqueous humor, LC-MS/MS; read-out: t½ Rabbit AH
Protocol: C.2.3. Stability Assay in Rabbit Aqueous Humor
Compounds are incubated at a concentration of 1 μM in rabbit aqueous humor (AH). Samples are taken at fixed time points and the remnant of compound is determined by LC-MS/MS after protein precipitation.

ROCK II = ROCK II (Homo sapiens, UniProt O75116); assay: Kinase inhibition (ROCKI or ROCKII), 33P-ATP filter assay; format: biochemical; conditions: 120 min at room temperature
Chain of ROCK II (O75116 whole entry): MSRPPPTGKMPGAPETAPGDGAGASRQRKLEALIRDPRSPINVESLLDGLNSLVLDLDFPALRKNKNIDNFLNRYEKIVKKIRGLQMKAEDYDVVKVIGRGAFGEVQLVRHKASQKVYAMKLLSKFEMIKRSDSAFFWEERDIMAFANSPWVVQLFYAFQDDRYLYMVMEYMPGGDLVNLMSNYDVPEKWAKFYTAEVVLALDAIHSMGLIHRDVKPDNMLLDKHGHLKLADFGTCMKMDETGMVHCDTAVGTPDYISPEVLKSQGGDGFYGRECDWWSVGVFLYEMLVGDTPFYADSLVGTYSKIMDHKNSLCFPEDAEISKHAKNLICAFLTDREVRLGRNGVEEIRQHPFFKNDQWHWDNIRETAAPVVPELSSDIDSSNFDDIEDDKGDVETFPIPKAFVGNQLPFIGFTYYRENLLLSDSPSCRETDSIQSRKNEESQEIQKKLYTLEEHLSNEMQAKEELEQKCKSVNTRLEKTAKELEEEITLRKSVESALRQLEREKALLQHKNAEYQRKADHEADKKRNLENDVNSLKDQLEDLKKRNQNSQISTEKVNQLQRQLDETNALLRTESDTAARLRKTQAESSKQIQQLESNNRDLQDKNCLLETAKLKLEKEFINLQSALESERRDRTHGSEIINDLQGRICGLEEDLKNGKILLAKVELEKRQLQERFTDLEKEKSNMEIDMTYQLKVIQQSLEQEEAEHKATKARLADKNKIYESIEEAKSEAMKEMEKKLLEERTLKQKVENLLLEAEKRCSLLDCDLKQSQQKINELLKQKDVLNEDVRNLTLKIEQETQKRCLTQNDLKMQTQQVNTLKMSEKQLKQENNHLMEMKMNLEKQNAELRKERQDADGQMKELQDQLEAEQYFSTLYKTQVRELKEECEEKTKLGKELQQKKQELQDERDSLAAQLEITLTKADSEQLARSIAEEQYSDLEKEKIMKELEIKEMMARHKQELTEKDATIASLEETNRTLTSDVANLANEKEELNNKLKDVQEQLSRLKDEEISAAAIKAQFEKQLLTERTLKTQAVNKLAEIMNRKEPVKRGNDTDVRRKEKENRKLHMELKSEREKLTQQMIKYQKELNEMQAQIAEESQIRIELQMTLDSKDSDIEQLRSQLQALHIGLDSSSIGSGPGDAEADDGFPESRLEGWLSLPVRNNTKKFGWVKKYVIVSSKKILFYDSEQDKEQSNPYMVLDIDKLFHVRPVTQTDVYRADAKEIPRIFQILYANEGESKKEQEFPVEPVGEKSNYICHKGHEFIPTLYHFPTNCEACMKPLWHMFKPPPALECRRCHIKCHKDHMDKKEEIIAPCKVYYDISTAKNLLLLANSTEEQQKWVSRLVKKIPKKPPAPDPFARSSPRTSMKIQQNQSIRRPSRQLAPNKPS
Protocol: C.1.1. Kinase inhibition (ROCKI or ROCKII)
Base Reaction buffer; 20 mM Hepes (pH 7.5), 10 mM MgCl2, 1 mM EGTA, 0.02% Brij35, 0.02 mg/ml BSA, 0.1 mM Na3VO4, 2 mM DTT, 1% DMSO—Required cofactors are added individually to each kinase reaction • Reaction Procedure: • 1. Prepare indicated substrate in freshly prepared Base Reaction Buffer • 2. Deliver any required cofactors to the substrate solution above • 3. Deliver indicated kinase into the substrate solution and gently mix • 4. Deliver compounds in DMSO into the kinase reaction mixture • 5. Deliver ^33P-ATP (specific activity 0.01 μCi/μl final) into the reaction mixture to initiate the reaction. • 6. […] Wash filters extensively in 0.1% Phosphoric acid.

[4] = Stability assay in human plasma; format: in vitro ADME; conditions: 1 μM compound in human plasma, LC-MS/MS; read-out: t½ human plasma
Protocol: C.2.1. Stability Assay in Human and/or Rat Plasma
Compounds are incubated at a concentration of 1 μM in rat (mice, dog, monkey, minipig or rabbit) or human plasma. Samples are taken at fixed time points and the remnant of compound is determined by LC-MS/MS after protein precipitation. Half life is expressed in minutes.

With `COC(=O)c1cccc(NC(=O)c2cccc(-c3cc(C(=O)Nc4ccncc4F)ccc3CN)c2)c1` [Compound 1] the IC50 [1] was less than 200 nM, the half-life at 1 μM [2] was greater than 0.5 h and the half-life at 1 μM [3] was greater than 1 h. For the same compound, the IC50 (ROCK II) was less than 10 nM and the half-life at 1 μM [4] was less than 0.0833 h.

`COC(=O)Cc1cccc(NC(=O)c2cccc(-c3cc(C(=O)Nc4ccncc4F)ccc3CN)c2)c1` [Compound 2] showed an IC50 [1] of less than 200 nM and an IC50 (ROCK II) of less than 10 nM.

`COC(=O)c1ccc(NC(=O)c2cccc(-c3cc(C(=O)Nc4ccncc4F)ccc3CN)c2)cc1` [Compound 3] showed an IC50 [1] of less than 200 nM and an IC50 (ROCK II) of less than 10 nM.

In the case of `COC(=O)Cc1ccc(NC(=O)c2cccc(-c3cc(C(=O)Nc4ccncc4F)ccc3CN)c2)cc1` [Compound 4], the IC50 [1] is reported as less than 200 nM and the IC50 (ROCK II) is reported as less than 10 nM.

Compound `NCc1ccc(C(=O)Nc2ccncc2F)cc1-c1cccc(NC(=O)c2ccc3c(c2)COC3=O)c1` [Compound 5] has an IC50 (ROCK II) of less than 10 nM and a half-life at 1 μM [4] of less than 1 h.

`COC(=O)c1ccc(F)c(NC(=O)c2cccc(-c3cc(C(=O)Nc4ccncc4F)ccc3CN)c2)c1` [Compound 6] showed an IC50 [1] of less than 200 nM, an IC50 (ROCK II) of less than 10 nM and a half-life at 1 μM [4] of less than 1 h.

`COC(=O)c1cncc(NC(=O)c2cccc(-c3cc(C(=O)Nc4ccncc4F)ccc3CN)c2)c1` [Compound 7] gave an IC50 (ROCK II) of less than 10 nM.

`CCCOC(=O)c1cccc(NC(=O)c2cccc(-c3cc(C(=O)Nc4ccncc4F)ccc3CN)c2)c1` [Compound 8] gave an IC50 [1] of less than 200 nM, a half-life at 1 μM [3] greater than 1 h and an IC50 (ROCK II) of less than 10 nM. It also gave a half-life at 1 μM [4] of less than 0.0833 h.

With `COC(=O)c1cc(F)cc(NC(=O)c2cccc(-c3cc(C(=O)Nc4ccncc4F)ccc3CN)c2)c1` [Compound 9] the IC50 (ROCK II) was less than 10 nM.

`CCCOC(=O)c1cc(F)cc(NC(=O)c2cccc(-c3cc(C(=O)Nc4ccncc4F)ccc3CN)c2)c1` [Compound 10] gave an IC50 [1] of less than 200 nM and an IC50 (ROCK II) of less than 100 nM.

In the case of `COC(=O)c1csc(NC(=O)c2cccc(-c3cc(C(=O)Nc4ccncc4F)ccc3CN)c2)n1` [Compound 11], the IC50 (ROCK II) is reported as less than 10 nM.

Work on `CCCOC(=O)c1ccc(F)c(NC(=O)c2cccc(-c3cc(C(=O)Nc4ccncc4F)ccc3CN)c2)c1` [Compound 12] yielded an IC50 [1] of less than 200 nM and an IC50 (ROCK II) of less than 10 nM.

Work on `COC(=O)c1ccc(NC(=O)c2cccc(-c3cc(C(=O)Nc4ccncc4F)ccc3CN)c2)cc1C` [Compound 13] yielded an IC50 (ROCK II) of less than 10 nM.

`CCOC(=O)c1nnc(NC(=O)c2cccc(-c3cc(C(=O)Nc4ccncc4F)ccc3CN)c2)o1` [Compound 14] gave an IC50 (ROCK II) of less than 10 nM.

For `COC(=O)c1ccc(NC(=O)c2cccc(-c3cc(C(=O)Nc4ccncc4F)ccc3CN)c2)o1` [Compound 15], the IC50 (ROCK II) was less than 10 nM.

Compound `COC(=O)c1ccc(C(=O)Nc2cccc(-c3cc(C(=O)Nc4ccncc4F)ccc3CN)c2)cc1` [Compound 16] has an IC50 (ROCK II) of less than 10 nM.

`COC(=O)c1cccc(C(=O)Nc2cccc(-c3cc(C(=O)Nc4ccncc4F)ccc3CN)c2)c1` [Compound 17] showed an IC50 [1] of less than 200 nM and an IC50 (ROCK II) of less than 10 nM.

Compound `COC(=O)c1ccc(C(=O)Nc2cccc(-c3cc(C(=O)Nc4ccncc4F)ccc3CN)c2)nc1` [Compound 18] has an IC50 (ROCK II) of less than 10 nM.

`CCCOC(=O)Cc1cccc(NC(=O)c2cccc(-c3cc(C(=O)Nc4ccncc4F)ccc3CN)c2)c1` [Compound 19] showed an IC50 (ROCK II) of less than 10 nM.

Compound `COC(=O)c1cc(NC(=O)c2cccc(-c3cc(C(=O)Nc4ccncc4F)ccc3CN)c2)ccc1C` [Compound 20] has an IC50 (ROCK II) of less than 10 nM.

Compound `CCCOC(=O)c1ccc(NC(=O)c2cccc(-c3cc(C(=O)Nc4ccncc4F)ccc3CN)c2)cc1C` [Compound 21] has an IC50 (ROCK II) of less than 10 nM.

In the case of `CCCOC(=O)c1cc(NC(=O)c2cccc(-c3cc(C(=O)Nc4ccncc4F)ccc3CN)c2)ccc1C` [Compound 22], the IC50 (ROCK II) is reported as less than 10 nM.
